US11014934B2, “Antiseptic drug” (AO “TATKHIMFARMPREPARATY”, priority 2017, dated 2021)
In brackets after ≈: the same amount, converted by molar mass.

Key:
[1] = test system: E. coli CDC F-50; test: Antiseptic activity on rat skin; format: in vivo; conditions: E. coli CDC F-50 on rat skin; antiseptic concentration 0.2%; exposure time 5 min; n = 6
Method: The study of the antiseptic activity of compound I in rats […] was carried out in accordance with [R 4.2.2643-10 Metody laboratornykh issledovaniy i ispytaniy mediko-profilakticheskikh dezinfektsionnykh sredstv dlya otsenki ikh effektivnosti i bezopasnosti: Rukovodstvo.—M: Federal'nyy tsentr gigiyeny i epidemiologii Rospotrebnadzora, 2010.—S. 615. R 4.2.2643-10 Laboratory methods for the study and testing of medical prophylactic disinfectants to assess their effectiveness and safety: Guide.—M.:: Federal Center for Hygiene and Epidemiology of Rospotrebnadzor, 2010.—P. 615]. Experiments were carried out on male Wistar rats with a body weight of 180-250 g.
A culture of E. coli CDC F-50, grown on dense nutrient medium for (18-20) hours, was washed with sterile isotonic chloride solution, centrifuged at 5000 rpm for 5 minutes, the supernatant was drained and cells were resuspended with sterile isotonic sodium chloride solution.
The bacterial suspension of microorganisms was brought to a turbidity of […] according to McFarland, which corresponds to a concentration of 1.5×10^7 cells/ml.
Animals were formed in 5 groups of 6 animals each. All manipulations with animals were performed under isoflurane anesthesia (4%—induction of anesthesia (2 min, 1 l/min), 2%—basis narcosis). A portion of 5×5 cm was shaved with a hair clipper on the dorsal part of the body of the animal.
A 0.25 ml microbial suspension containing 1×10^7 CFU of E. coli CDC F-50 was applied to the shaved portion of the rat back with a dispenser and distributed with a sterile disposable spatula over the entire square area. It was left for 2-3 minutes until dry.
Then, a gauze cloth (5×5 cm) was applied to the skin of rats for 5 minutes. In the experimental group, the tissue was pre-wetted with 1 ml of 0.2% solution of compound I, and in the positive control groups, the tissue was dipped in 1 ml of 0.2% miramistin, benzalkonium chloride and chlorhexidine. In the negative control group, the cloth was immersed in 1 ml of sterile saline. […]
After the time required for the cultivation of microorganisms of this species, the results were counted according to the number of colonies grown on the Petri dish. […] After counting the number of colonies grown on Petri dishes, the density of contamination per 1 cm^2 of the surface and the percentage of disinfection were calculated, taking the number of colonies removed from control surfaces and not exposed to antiseptics action as 100%. The percentage of growth inhibition of E. coli CDC F-50 was calculated by the formula: […]

[2] = test system: Stylonychia mytilus; test: Antiprotozoal activity by death of protozoa; format: cell-based; conditions: death of protozoa
Method: Evaluation of the antiprotozoal activity of compound I was determined by the viability of the protozoa genus of hypotrichs Stylonychia mytilus in a nutrient medium in the presence of the studied substances. A mother liquor of compound I (10 mg/ml) was prepared in a mixture of DMSO and 96% ethanol (1:1). A 1% aqueous solution of DMSO and ethyl alcohol served as a negative control, and miramistin, benzalkonium chloride, and chlorhexidine were used as reference preparations. Then, from the mother liquors by repeated dilutions with water, working solutions were prepared corresponding to doses of 5; 10; 20; 25; 50; 75; 100 and 150 μg/ml. 10 μl of culture medium with protozoa and 10 μl of a solution of the test substance were applied to a chamber slide. The experiment was done in five replicates.
Slides were examined under a light microscope, antiprotozoal activity of substances (MIC and IC50) were determined by the death of protozoa. The Hill regression model with 5 parameters was used for the analysis.

For `[H]/N=C(\N/C(=N/[H])NCCCCCCNC(=N)NC(=N)Nc1ccc(Cl)cc1)Nc1ccc(Cl)cc1` [Chlorhexidine], the “Growth inhibition rate (M ± SD)” value [1] was 95.7 ± 3.4%, the IC50 ([2]; Hill regression, read-out: IC50 (95% confidence interval)) was 42 µg/mL (≈ 83.1 µM) and the MIC ([2]; read-out: MIC) was 20 µg/mL (≈ 39.6 µM).
